Results from patent US20220144838A1, “Compounds as Inhibitors of Macrophage Migration Inhibitory Factor” (NANJING IMMUNOPHAGE BIOTECH CO., LTD., priority 2019, published 2022).

Target: T1, MIF (Homo sapiens, UniProt P14174)
T1 sequence (P14174 2-115 limits assumed): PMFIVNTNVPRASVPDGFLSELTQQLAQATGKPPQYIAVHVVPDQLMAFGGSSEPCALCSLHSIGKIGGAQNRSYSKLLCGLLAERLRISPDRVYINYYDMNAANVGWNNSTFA
Assay: MIF tautomerase assay using pHPP as substrate
Assay type: biochemical
Conditions: inhibition of the MIF enzyme in vitro; mean of multiple test results; read-out: Tautomerase Inhibition pIC50 (converted)
Procedure, shortened: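 Cell-free keto-to-enol tautomerization of pHPP, enol product detected spectrophotometrically as borate complex. Final 3 nM MIF and 1.5 mM ketonic pHPP in DPBS/boric acid buffer with 0.025% BSA and 300 μM CHAPS, pH 6.0, room temperature; initial rates from absorbance slopes give mean pIC50.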

CN1CCN(c2nc(N3CCN(c4ccc(O)cc4)CC3)nc3c2ncn3-c2ccncc2)CC1=O [Example 175, 4-(2-(4-(4-hydroxyphenyl)piperazin-1-yl)-9-(pyridin-4-yl)-9H-purin-6-yl)-1-methylpiperazin-2-one]
IC50: 0.01 to 0.0977 µM

OC[C@@H](COCc1ccccc1)Nc1nc(N2CCN(c3ccc(O)cc3)CC2)nc2c1ncn2-c1ccncc1 [Example 176, (S)-4-(4-(6-((1-(benzyloxy)-3-hydroxypropan-2-yl)amino)-9-(pyridin-4-yl)-9H-purin-2-yl)piperazin-1-yl)phenol]
IC50: 0.1 to 0.977 µM

CC(CO)(CO)Nc1nc(N2CCN(c3ccc(O)cc3)CC2)nc2c1ncn2-c1ccncc1 [Example 177, 2-((2-(4-(4-hydroxyphenyl)piperazin-1-yl)-9-(pyridin-4-yl)-9H-purin-6-yl)amino)-2-methylpropane-1,3-diol]
IC50: 0.1 to 0.977 µM

Oc1ccc(N2CCN(c3nc(N4CCNCC4)c4ncn(-c5ccncc5)c4n3)CC2)cc1 [Example 178, 4-(4-(6-(piperazin-1-yl)-9-(pyridin-4-yl)-9H-purin-2-yl)piperazin-1-yl)phenol]
IC50: 0.1 to 0.977 µM

CN1CCN(c2nc(N3CCN(c4ccc(O)cc4)CC3)nc3c2ncn3-c2ccncc2)CC1 [Example 179, 4-(4-(6-(4-methylpiperazin-1-yl)-9-(pyridin-4-yl)-9H-purin-2-yl)piperazin-1-yl)phenol]
IC50: 1 to 9.77 µM

CN(CC(=O)O)c1nc(N2CCN(c3ccccc3)CC2)nc2c1ncn2-c1ccncc1 [Example 180, N-methyl-N-(2-(4-phenylpiperazin-1-yl)-9-(pyridin-4-yl)-9H-purin-6-yl)glycine]
IC50: > 10 µM

O=C(O)C1CCN(c2nc(N3CCN(c4cccnc4)CC3)nc3c2ncn3-c2ccncc2)C1 (stereo not drawn) [Example 181, 1-(2-(4-(pyridin-3-yl)piperazin-1-yl)-9-(pyridin-4-yl)-9H-purin-6-yl)pyrrolidine-3-carboxylic acid]
IC50: > 10 µM

O=C(O)C1CCN(c2nc(N3CCN(c4ccccc4)CC3)nc3c2ncn3-c2ccncc2)C1 (stereo not drawn) [Example 182, 1-(2-(4-phenylpiperazin-1-yl)-9-(pyridin-4-yl)-9H-purin-6-yl)pyrrolidine-3-carboxylic acid]
IC50: > 10 µM

CCC(CO)N(C)c1nc(N2CCN(c3ccc(O)cc3)CC2)nc2c1ncn2-c1cccnc1 (stereo not drawn) [Example 183, 4-(4-(6-((1-hydroxybutan-2-yl)(methyl)amino)-9-(pyridin-3-yl)-9H-purin-2-yl)piperazin-1-yl)phenol]
IC50: > 10 µM

Oc1ccc(N2CCN(c3ncc4ncn(-c5ccncc5)c4n3)CC2)cc1 [Example 184, 4-(4-(9-(pyridin-4-yl)-9H-purin-2-yl)piperazin-1-yl)phenol]
IC50: 0.01 to 0.0977 µM

Cc1nc(N2CCC(O)(c3ccc(O)cc3)CC2)nc2c1ncn2-c1ccc(C#N)cc1 [Example 185, 4-(2-(4-hydroxy-4-(4-hydroxyphenyl)piperidin-1-yl)-6-methyl-9H-purin-9-yl)benzonitrile]
IC50: > 10 µM

CC1CN(c2nc(N)c3ncn(-c4ccncc4)c3n2)CCN1c1ccc(O)cc1 (stereo not drawn) [Example 186, 4-(4-(6-amino-9-(pyridin-4-yl)-9H-purin-2-yl)-2-methylpiperazin-1-yl)phenol]
IC50: 0.1 to 0.977 µM

Nc1nc(N2CCN(c3ccc(O)cc3)CC2)nc2c1ncn2C1CCCCO1 (stereo not drawn) [Example 187, 4-(4-(6-amino-9-(tetrahydro-2H-pyran-2-yl)-9H-purin-2-yl)piperazin-1-yl)phenol]
IC50: > 10 µM

Nc1nc(N2CCN(c3ccc(O)cc3)CC2)nc2c1ncn2C1CCNCC1 [Example 188, 4-(4-(6-amino-9-(piperidin-4-yl)-9H-purin-2-yl)piperazin-1-yl)phenol]
IC50: > 10 µM

Nc1ccc(N2CCN(c3nc(N)c4ncn(-c5ccncc5)c4n3)CC2)nc1 [Example 190, 2-(4-(5-aminopyridin-2-yl)piperazin-1-yl)-9-(pyridin-4-yl)-9H-purin-6-amine]
IC50: > 10 µM

Nc1nc(N2CCN(c3ccc(CCO)cc3)CC2)nc2c1ncn2-c1ccncc1 [Example 191, 2-(4-(4-(6-amino-9-(pyridin-4-yl)-9H-purin-2-yl)piperazin-1-yl)phenyl)ethan-1-ol]
IC50: > 10 µM

Nc1nc(N2CCN(c3ccc(CO)cc3)CC2)nc2c1ncn2-c1ccncc1 [Example 192, (4-(4-(6-amino-9-(pyridin-4-yl)-9H-purin-2-yl)piperazin-1-yl)phenyl)methanol]
IC50: > 10 µM

Nc1nc(N2CCN(c3ccc(C(=O)O)cn3)CC2)nc2c1ncn2-c1ccncc1 [Example 193, 6-(4-(6-amino-9-(pyridin-4-yl)-9H-purin-2-yl)piperazin-1-yl)nicotinic acid]
IC50: > 10 µM

NC(=O)c1ccc(N2CCN(c3nc(N)c4ncn(-c5ccncc5)c4n3)CC2)nc1 [Example 194, 6-(4-(6-amino-9-(pyridin-4-yl)-9H-purin-2-yl)piperazin-1-yl)nicotinamide]
IC50: > 10 µM

Nc1nc(N2CCC(n3cc(C(=O)O)cn3)CC2)nc2c1ncn2-c1ccncc1 [Example 195, 1-(1-(6-amino-9-(pyridin-4-yl)-9H-purin-2-yl)piperidin-4-yl)-1H-pyrazole-4-carboxylic acid]
IC50: > 10 µM

Nc1nc(N2CCN(c3ccc(CO)cn3)CC2)nc2c1ncn2-c1ccncc1 [Example 196, (6-(4-(6-amino-9-(pyridin-4-yl)-9H-purin-2-yl)piperazin-1-yl)pyridin-3-yl)methanol]
IC50: > 10 µM

Nc1nc(N2CCC(O)(C#CCO)CC2)nc2c1ncn2-c1ccncc1 [Example 198, 1-(6-amino-9-(pyridin-4-yl)-9H-purin-2-yl)-4-(3-hydroxyprop-1-yn-1-yl)piperidin-4-ol]
IC50: > 10 µM

Nc1nc(N2CC(O)(c3cn[nH]c3)C2)nc2c1ncn2-c1ccncc1 [Example 199, 1-(6-amino-9-(pyridin-4-yl)-9H-purin-2-yl)-3-(1H-pyrazol-4-yl)azetidin-3-ol]
IC50: > 10 µM

OC1(c2cn[nH]c2)CN(c2ncc3ncn(-c4ccncc4)c3n2)C1 [Example 200, 3-(1H-pyrazol-4-yl)-1-(9-(pyridin-4-yl)-9H-purin-2-yl)azetidin-3-ol]
IC50: > 10 µM

Nc1nc(N2CC(O)(c3nccs3)C2)nc2c1ncn2-c1ccncc1 [Example 201, 1-(6-amino-9-(pyridin-4-yl)-9H-purin-2-yl)-3-(thiazol-2-yl)azetidin-3-ol]
IC50: > 10 µM

Nc1nc(N2CCC(O)(c3ccccc3)CC2)nc2c1ncn2-c1ccncc1 [Example 202, 1-(6-amino-9-(pyridin-4-yl)-9H-purin-2-yl)-4-phenylpiperidin-4-ol]
IC50: > 10 µM

Cc1cc(-n2cnc3c(C)nc(N4CCC(O)(c5ccc(O)cc5)CC4)nc32)ccn1 [Example 203, 4-(4-hydroxyphenyl)-1-(6-methyl-9-(2-methylpyridin-4-yl)-9H-purin-2-yl)piperidin-4-ol]
IC50: > 10 µM

Cc1nc(N2CCC(O)(c3ccc(O)cc3)CC2)nc2c1ncn2-c1cccnc1 [Example 204, 4-(4-hydroxyphenyl)-1-(6-methyl-9-(pyridin-3-yl)-9H-purin-2-yl)piperidin-4-ol]
IC50: 0.01 to 0.0977 µM

CN(CC(=O)O)c1nc(N2CCC(O)(c3ccc(O)cc3)CC2)nc2c1ncn2-c1ccncc1 [Example 205, N-(2-(4-hydroxy-4-(4-hydroxyphenyl)piperidin-1-yl)-9-(pyridin-4-yl)-9H-purin-6-yl)-N-methylglycine]
IC50: 0.1 to 0.977 µM

Cc1nc(N2CCC(O)(c3cccc(O)c3)CC2)nc2c1ncn2-c1ccncc1 [Example 206, 4-(3-hydroxyphenyl)-1-(6-methyl-9-(pyridin-4-yl)-9H-purin-2-yl)piperidin-4-ol]
IC50: 0.1 to 0.977 µM

Oc1ccc(C2(O)CCN(c3nc(N4C[C@H](O)[C@@H](O)C4)c4ncn(-c5ccncc5)c4n3)CC2)cc1 [Example 207, (3S,4S)-1-(2-(4-hydroxy-4-(4-hydroxyphenyl)piperidin-1-yl)-9-(pyridin-4-yl)-9H-purin-6-yl)pyrrolidine-3,4-diol]
IC50: 0.1 to 0.977 µM

Nc1nc(N2CCC(O)(c3ccc(O)cc3)CC2)nc2c1ncn2-c1cccnc1 [Example 208, 1-(6-amino-9-(pyridin-3-yl)-9H-purin-2-yl)-4-(4-hydroxyphenyl)piperidin-4-ol]
IC50: 0.1 to 0.977 µM

Nc1nc(N2CCC(O)(c3ccc(F)cc3)CC2)nc2c1ncn2-c1cccnc1 [Example 209, 1-(6-amino-9-(pyridin-3-yl)-9H-purin-2-yl)-4-(4-fluorophenyl)piperidin-4-ol]
IC50: 1 to 9.77 µM

Nc1nc(N2CCC(O)(c3ccc(F)cc3)CC2)nc2c1ncn2-c1ccncc1 [Example 210, 1-(6-amino-9-(pyridin-4-yl)-9H-purin-2-yl)-4-(4-fluorophenyl)piperidin-4-ol]
IC50: 1 to 9.77 µM

Oc1ccc(C2(O)CCN(c3nc(N4CCCCC4)c4ncn(-c5ccncc5)c4n3)CC2)cc1 [Example 211, 1 4-(4-hydroxyphenyl)-1-(6-(piperidin-1-yl)-9-(pyridin-4-yl)-9H-purin-2-yl)piperidin-4-ol]
IC50: 1 to 9.77 µM

NC(=O)c1ccc(C2(O)CN(c3nc(N)c4ncn(-c5ccncc5)c4n3)C2)cc1 [Example 212, 4-(1-(6-amino-9-(pyridin-4-yl)-9H-purin-2-yl)-3-hydroxyazetidin-3-yl)benzamide]
IC50: 1 to 9.77 µM

Nc1nc(N2CC(O)(c3ccns3)C2)nc2c1ncn2-c1ccncc1 [Example 213, 1-(6-amino-9-(pyridin-4-yl)-9H-purin-2-yl)-3-(isothiazol-5-yl)azetidin-3-ol]
IC50: > 10 µM

Nc1nc(N2CC(O)(c3ccc(CO)cc3)C2)nc2c1ncn2-c1ccncc1 [Example 214, 1-(6-amino-9-(pyridin-4-yl)-9H-purin-2-yl)-3-(4-(hydroxymethyl)phenyl) azetidin-3-ol]
IC50: > 10 µM

Cc1nc(N2CCC(O)(c3ccc(O)cc3)CC2)nc2c1ncn2CC(=O)O [Example 215, 2-(2-(4-hydroxy-4-(4-hydroxyphenyl)piperidin-1-yl)-6-methyl-9H-purin-9-yl)acetic acid]
IC50: > 10 µM
